Reference: US9771352B2, “Hydroxyalkyl-substituted phenyltriazole derivatives and uses thereof” (BAYER PHARMA AKTIENGESELLSCHAFT, priority 2014, dated 2017)

Legend:
human V2 receptor = molecular target: T1, human V2 receptor (Homo sapiens, UniProt P30518); assay: Cellular in vitro assay for determining vasopressin receptor activity, V2 receptor cell line (CRE-luciferase); assay type: cell-based; details: CHO cell line transfected with human V2 receptor; [Arg8]-vasopressin at EC50; compounds of the invention (Table 1A); read-out: IC50 hV2
T1 construct: expressed in transfected cells; host or cells: CHO K1 (ATCC) expressing firefly luciferase under a CRE-responsive promoter
Method: (§1) The identification of agonists and antagonists of the V1a and V2 vasopressin receptors from humans, rats and dogs as well as the quantification of the activity of the compounds of the invention is carried out using recombinant cell lines. These cell lines originally derive from a hamster's ovary epithelial cell (Chinese Hamster Ovary, CHO K1, ATCC: American Type Culture Collection, Manassas, Va. 20108, USA). The test cell lines constitutively express the human, rat or dog V1a or V2 receptors. In case of the […] V1a receptors, cells are also stably transfected with a modified form of the calcium-sensitive photoproteins aequorin (human and rat V1a) or obelin (dog V1a), which, after reconstitution with the cofactor coelenterazine, emit light when there are increases in free calcium concentrations [Rizzuto R, Simpson A W, Brini M, Pozzan T, Nature 358, 325-327 (1992); Illarionov B A, Bondar V S, Illarionova V A, Vysotski E S, Gene 153 (2), 273-274 (1995)]. The resulting vasopressin receptor cells react to stimulation of the recombinantly expressed V1a receptors by intracellular release of calcium ions, which can be quantified by the resulting photoprotein luminescence. The Gs-coupled V2 receptors are stably transfected into cell lines expressing the gene for firefly luciferase under control of a CRE-responsible promoter. Activation of V2 receptors induces the activation of the CRE-responsive promoter via cAMP increase, thereby inducing the expression of firefly luciferase. The light emitted by photoproteins of V1a cell lines as well as the light emitted by firefly luciferase of V2 cell lines corresponds to the activation or inhibition of the respective vasopressin receptor. The bioluminescence of the cell lines is detected using a suitable luminometer [Milligan G, Marshall F, Rees S, Trends in Pharmacological Sciences 17, 235-237 (1996)].
On the day before the assay, the cells are plated out in culture medium (DMEM/F12, 2% FCS, 2 mM glutamine, 10 mM HEPES) in 384-well microtiter plates and kept in a cell incubator (96% humidity, 5% v/v CO2, 37° C.). […] Upon addition of the cell lysis reagent Triton and the substrate luciferin, luminescence of firefly luciferase is measured in a luminometer.
(§2) Table 1A below lists individual IC50 values for the compounds of the invention (including diastereomeric mixtures as well as separated, enantiopure diastereomers) that were obtained from cell lines transfected with the human V1a or V2 receptor: […]

human V1a receptor = molecular target: T2, human V1a receptor (Homo sapiens, UniProt P37288); assay: Cellular in vitro assay for determining vasopressin receptor activity, V1a receptor cell line (photoprotein luminescence); assay type: cell-based; details: CHO cell line transfected with human V1a receptor; [Arg8]-vasopressin at EC50; compounds of the invention (Table 1A); read-out: IC50 hV1a
T2 construct: expressed in transfected cells; host or cells: CHO K1 (ATCC), also stably transfected with modified aequorin
Method: as §1
On the day before the assay, the cells are plated out in culture medium (DMEM/F12, 2% FCS, 2 mM glutamine, 10 mM HEPES, 5 μg/ml coelenterazine) in 384-well microtiter plates and kept in a cell incubator (96% humidity, 5% v/v CO2, 37° C.). On the day of the assay, test compounds in various concentrations are placed for 10 minutes in the wells of the microtiter plate before the agonist [Arg^8]-vasopressin at EC50 concentration is added. The resulting light signal is measured immediately in the luminometer.
as §2

T2 sequence (P37288 whole entry): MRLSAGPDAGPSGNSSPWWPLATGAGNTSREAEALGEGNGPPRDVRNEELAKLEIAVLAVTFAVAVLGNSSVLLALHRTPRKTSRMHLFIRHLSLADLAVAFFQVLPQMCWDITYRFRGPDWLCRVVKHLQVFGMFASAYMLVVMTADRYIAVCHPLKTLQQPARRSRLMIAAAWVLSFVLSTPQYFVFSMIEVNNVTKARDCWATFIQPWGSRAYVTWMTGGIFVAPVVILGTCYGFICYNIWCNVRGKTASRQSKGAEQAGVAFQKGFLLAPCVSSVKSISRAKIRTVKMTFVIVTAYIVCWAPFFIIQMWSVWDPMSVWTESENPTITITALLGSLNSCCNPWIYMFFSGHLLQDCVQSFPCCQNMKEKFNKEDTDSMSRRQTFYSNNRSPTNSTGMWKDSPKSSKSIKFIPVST
T1 sequence (P30518 whole entry): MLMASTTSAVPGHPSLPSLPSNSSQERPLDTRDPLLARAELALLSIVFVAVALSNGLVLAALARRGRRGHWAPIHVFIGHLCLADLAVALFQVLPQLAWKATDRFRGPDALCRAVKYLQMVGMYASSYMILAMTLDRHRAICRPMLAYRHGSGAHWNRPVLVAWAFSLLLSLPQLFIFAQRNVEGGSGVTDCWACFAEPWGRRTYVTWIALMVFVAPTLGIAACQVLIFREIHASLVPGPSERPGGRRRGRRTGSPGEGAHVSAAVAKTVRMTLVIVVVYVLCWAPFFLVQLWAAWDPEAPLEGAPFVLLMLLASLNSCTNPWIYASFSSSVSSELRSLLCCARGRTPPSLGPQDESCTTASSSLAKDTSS

Structure (SMILES) | IC50 (human V2 receptor) | IC50 (human V1a receptor)
COc1ccccc1-n1nc(Cn2nc(-c3ccc(Cl)cc3)n(C[C@H](O)C(F)(F)F)c2=O)nc1C(C)O (mixture of isomers) [Example 10, 5-(4-Chlorophenyl)-2-({5-[(1RS)-1-hydroxyethyl]-1-(2-methoxyphenyl)-1H-1,2,4-triazol-3-yl}-methyl)-4-[(2S)-3,3,3-trifluoro-2-hydroxypropyl]-2,4-dihydro-3H-1,2,4-triazol-3-one] | 1.4 nM | 1.4 nM
CC(O)c1nc(Cn2nc(-c3ccc(Cl)cc3)n(C[C@H](O)C(F)(F)F)c2=O)nn1-c1cc(F)cc(Cl)c1 (mixture of isomers) [Example 13, 2-({1-(3-Chloro-5-fluorophenyl)-5-[(1RS)-1-hydroxyethyl]-1H-1,2,4-triazol-3-yl}methyl)-5-(4-chlorophenyl)-4-[(2S)-3,3,3-trifluoro-2-hydroxypropyl]-2,4-dihydro-3H-1,2,4-triazol-3-one] | 1.4 nM | 6.2 nM
CC(O)c1nc(Cn2nc(-c3ccc(Cl)cc3)n(C[C@H](O)C(F)(F)F)c2=O)nn1-c1ccccc1 (mixture of isomers) [Example 16, 5-(4-Chlorophenyl)-2-({5-[(1RS)-1-hydroxyethyl]-1-phenyl-1H-1,2,4-triazol-3-yl}methyl)-4-[(2S)-3,3,3-trifluoro-2-hydroxypropyl]-2,4-dihydro-3H-1,2,4-triazol-3-one] | 6 nM | 3.1 nM
CC(O)c1nc(Cn2nc(-c3ccc(Cl)cc3)n(C[C@H](O)C(F)(F)F)c2=O)nn1-c1cccc(C(F)F)c1 (mixture of isomers) [Example 19, 5-(4-Chlorophenyl)-2-({1-[3-(difluoromethyl)phenyl]-5-[(1RS)-1-hydroxyethyl]-1H-1,2,4-triazol-3-yl}methyl)-4-[(2S)-3,3,3-trifluoro-2-hydroxypropyl]-2,4-dihydro-3H-1,2,4-triazol-3-one] | 1.4 nM | 12.4 nM
CC(O)c1nc(Cn2nc(-c3ccc(Cl)cc3)n(C[C@H](O)C(F)(F)F)c2=O)nn1-c1cccc(C(F)(F)F)c1 (mixture of isomers) [Example 22, 5-(4-Chlorophenyl)-2-({5-[(1RS)-1-hydroxyethyl]-1-[3-(trifluoromethyl)phenyl]-1H-1,2,4-triazol-3-yl}methyl)-4-[(2S)-3,3,3-trifluoro-2-hydroxypropyl]-2,4-dihydro-3H-1,2,4-triazol-3-one] | 2.3 nM | 24.4 nM
CC(O)c1nc(Cn2nc(-c3ccc(Cl)cc3)n(C[C@H](O)C(F)(F)F)c2=O)nn1-c1cc(F)cc(F)c1 (mixture of isomers) [Example 25, 5-(4-Chlorophenyl)-2-({1-(3,5-difluorophenyl)-5-[(1RS)-1-hydroxyethyl]-1H-1,2,4-triazol-3-yl}-methyl)-4-[(2S)-3,3,3-trifluoro-2-hydroxypropyl]-2,4-dihydro-3H-1,2,4-triazol-3-one] | 3.6 nM | 7.2 nM
Cc1cccc(-n2nc(Cn3nc(-c4ccc(Cl)cc4)n(C[C@H](O)C(F)(F)F)c3=O)nc2C(C)O)c1 (mixture of isomers) [Example 28, 5-(4-Chlorophenyl)-2-({5-[(1RS)-1-hydroxyethyl]-1-(3-methylphenyl)-1H-1,2,4-triazol-3-yl}-methyl)-4-[(2S)-3,3,3-trifluoro-2-hydroxypropyl]-2,4-dihydro-3H-1,2,4-triazol-3-one] | 0.2 nM | 1.3 nM
CCc1ccccc1-n1nc(Cn2nc(-c3ccc(Cl)cc3)n(C[C@H](O)C(F)(F)F)c2=O)nc1C(C)O (mixture of isomers) [Example 31, 5-(4-Chlorophenyl)-2-({1-(2-ethylphenyl)-5-[(1RS)-1-hydroxyethyl]-1H-1,2,4-triazol-3-yl}-methyl)-4-[(2S)-3,3,3-trifluoro-2-hydroxypropyl]-2,4-dihydro-3H-1,2,4-triazol-3-one] | 0.9 nM | 1.6 nM
CC(O)c1nc(Cn2nc(-c3ccc(Cl)cc3)n(C[C@H](O)C(F)(F)F)c2=O)nn1-c1ccc(F)cc1Cl (mixture of isomers) [Example 34, 2-({1-(2-Chloro-4-fluorophenyl)-5-[(1RS)-1-hydroxyethyl]-1H-1,2,4-triazol-3-yl}methyl)-5-(4-chlorophenyl)-4-[(2S)-3,3,3-trifluoro-2-hydroxypropyl]-2,4-dihydro-3H-1,2,4-triazol-3-one] | 1.2 nM | 0.4 nM
COc1ccc(F)cc1-n1nc(Cn2nc(-c3ccc(Cl)cc3)n(C[C@H](O)C(F)(F)F)c2=O)nc1C(C)O (mixture of isomers) [Example 37, 5-(4-Chlorophenyl)-2-({1-(5-fluoro-2-methoxyphenyl)-5-[(1RS)-1-hydroxyethyl]-1H-1,2,4-triazol-3-yl}methyl)-4-[(2S)-3,3,3-trifluoro-2-hydroxypropyl]-2,4-dihydro-3H-1,2,4-triazol-3-one] | 0.7 nM | 0.5 nM
CC(O)c1nc(Cn2nc(-c3ccc(Cl)cc3)n(C[C@H](O)C(F)(F)F)c2=O)nn1-c1ccccc1F (mixture of isomers) [Example 40, 5-(4-Chlorophenyl)-2-({1-(2-fluorophenyl)-5-[(1RS)-1-hydroxyethyl]-1H-1,2,4-triazol-3-yl}-methyl)-4-[(2S)-3,3,3-trifluoro-2-hydroxypropyl]-2,4-dihydro-3H-1,2,4-triazol-3-one] | 7.2 nM | 1.5 nM
CC(O)c1nc(Cn2nc(-c3ccc(Cl)cc3)n(C[C@H](O)C(F)(F)F)c2=O)nn1-c1ccc(F)c(Cl)c1 (mixture of isomers) [Example 43, 2-({1-(3-Chloro-4-fluorophenyl)-5-[(1RS)-1-hydroxyethyl]-1H-1,2,4-triazol-3-yl}methyl)-5-(4-chlorophenyl)-4-[(2S)-3,3,3-trifluoro-2-hydroxypropyl]-2,4-dihydro-3H-1,2,4-triazol-3-one] | 1.2 nM | 6.2 nM
CC(O)c1nc(Cn2nc(-c3ccc(Cl)cc3)n(C[C@H](O)C(F)(F)F)c2=O)nn1-c1cc(Cl)cc(Cl)c1 (mixture of isomers) [Example 46, 5-(4-Chlorophenyl)-2-({1-(3,5-dichlorophenyl)-5-[(1RS)-1-hydroxyethyl]-1H-1,2,4-triazol-3-yl}-methyl)-4-[(2S)-3,3,3-trifluoro-2-hydroxypropyl]-2,4-dihydro-3H-1,2,4-triazol-3-one] | 2.1 nM | 6.3 nM
CC(O)c1nc(Cn2nc(-c3ccc(Cl)cc3)n(C[C@H](O)C(F)(F)F)c2=O)nn1-c1cc(Cl)ccc1Cl (mixture of isomers) [Example 49, 5-(4-Chlorophenyl)-2-({1-(2,5-dichlorophenyl)-5-[(1RS)-1-hydroxyethyl]-1H-1,2,4-triazol-3-yl}-methyl)-4-[(2S)-3,3,3-trifluoro-2-hydroxypropyl]-2,4-dihydro-3H-1,2,4-triazol-3-one] | 12.6 nM | 1.8 nM
CC(O)c1nc(Cn2nc(-c3ccc(Cl)cc3)n(C[C@H](O)C(F)(F)F)c2=O)nn1-c1cccc(Cl)c1F (mixture of isomers) [Example 52, 2-({1-(3-Chloro-2-fluorophenyl)-5-[(1RS)-1-hydroxyethyl]-1H-1,2,4-triazol-3-yl}methyl)-5-(4-chlorophenyl)-4-[(2S)-3,3,3-trifluoro-2-hydroxypropyl]-2,4-dihydro-3H-1,2,4-triazol-3-one] | 0.4 nM | 3.9 nM
CC(O)c1nc(Cn2nc(-c3ccc(Cl)cc3)n(C[C@H](O)C(F)(F)F)c2=O)nn1-c1cc(F)ccc1Cl (single isomer, unassigned) [Example 59] | 2.4 nM | 
CC(O)c1nc(Cn2nc(-c3ccc(Cl)cc3)n(C[C@H](O)C(F)(F)F)c2=O)nn1-c1cc(F)ccc1Cl (single isomer, unassigned) [Example 60] | 5.2 nM | 
